Measurements reported in PMC9262865 (Chembiochem, 2022).

How the values were obtained:
[1] = target: tyrosine phenol-lyase (wild type TPL) (Citrobacter freundii, UniProt P31013); experiment: absorbance titration at […] nm; type: binding
[2] = target: T1, tyrosine phenol-lyase (M379A TPL) (Citrobacter freundii, UniProt P31013, M379A); experiment: X-ray crystal structure; type: binding
[3] = target: T1, tyrosine phenol-lyase (M379A TPL); experiment: LDH-coupled steady-state kinetics of purified enzyme; type: biochemical

| Structure (SMILES) | Kd [1] | Kd [2] | M379A TPL / k cat/K M, M^-1 s^-1 [3] |
| --- | --- | --- | --- |
| CSCC[C@H](N)C(=O)O [L-methionine] | 790 µM | 1740 µM |  |
| N[C@@H](Cc1ccc(O)cc1)C(=O)O [compound 1, L-tyrosine] |  |  | 148 M^-1 s^-1 (kcat/KM) |
| N[C@@H](Cc1ccc(O)c(F)c1)C(=O)O [compound 3, 3-F-L-tyrosine] |  |  | 774 M^-1 s^-1 (kcat/KM) |
